Experimental data taken from US5356935A, “Reduced phenanthrenes” (Eli Lilly and Company, priority 1993, dated 1994).

Columns and labels:
Type II 5α-reductase = target: T1, Type II 5α-reductase (Homo sapiens, UniProt P31213); assay: Human Type II steroid 5α-reductase assay (human prostate enzyme, [3H]-testosterone conversion); format: biochemical; conditions: compared to control reaction mixtures, read-out: percent inhibition of Type II 5AR; for inhibition at 1 µM: compound concentration 1 μM; for inhibition at 3 µM: compound concentration 3 μM; for inhibition at 10 µM: compound concentration 10 μM; for inhibition at 0.3 µM: compound concentration .3 μM
T1 construct: from tissue; host or cells: human prostate tissue from surgery, 100,000×g pellet of homogenate
T1 sequence (P31213 1-254): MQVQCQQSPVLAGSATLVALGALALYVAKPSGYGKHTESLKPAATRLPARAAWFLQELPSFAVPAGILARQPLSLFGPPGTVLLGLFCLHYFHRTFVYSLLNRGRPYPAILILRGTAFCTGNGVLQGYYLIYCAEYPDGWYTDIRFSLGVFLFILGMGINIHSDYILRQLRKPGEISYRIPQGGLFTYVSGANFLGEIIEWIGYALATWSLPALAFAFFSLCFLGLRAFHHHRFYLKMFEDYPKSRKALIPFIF
Method: The same procedure as above was used for preparations using tissue from prostate surgery with the following changes: The buffer used was 20 mM sodium phosphate, pH 6.5; and the pellet was resuspended in the sodium phosphate buffer containing 20% glycerol.
(§1) This enzyme assay is based on the conversion of [^3 H]-testosterone to [^3 H]-5α-dihydrotestosterone (DHT) and other 5α-reduced metabolites. While about 90% of the 5α-reduced metabolites formed in these assays was DHT, androstanedione was formed at about 10%. Essentially no androsterone was detected. In a total volume of 1.0 ml, the assay contained 2.6 μCi [^3 H]-testosterone (50 nM), 500 μM of reduced nicotine adeninc dinucleotide phosphate, 100 mM Tris-HCl, pH 7.5, (in Type II assays, 40 mM sodium acetate at pH 5.5 is used instead of Tris-HCl) and test compounds as indicated. Test compounds were added in 20 μl of dimethylsulfoxide (20 μl of dimethylsulfoxide was added to blanks and controls). The reaction was initiated by the addition of 0.5 mg of Type I or Type II 5α-reductase. The reaction mixture was incubated for 30 min at 25° and terminated by the addition of 1 ml ice-cold stopping solution. The stopping solution contained 40 μM each of non-radioactivetestosterone, DHT, androstenedione, androstanedione, androsterone, androstan-3β,17β-diol, and androstan-3α,17β-diol.
(§2) The samples were prepared for high performance liquid chromatography by solid phase extraction. Disposable solid matrix extraction columns (C-18 reversed;phase, 6 ml, 500 mg; Bond Elut™ from Analytichem International; Harbor City, Calif.) were conditioned by washing with 5 ml of methanol followed by 5 ml of deionized water. The reaction mixtures were then applied to the columns. The columns were subsequently washed with 5 ml of acetone:water (1:4), followed by 0.3 ml of methanol. The samples were then eluted with 3 ml of methanol and collected in 20 ml scintillation vials. Three ml of water was then added to each scintillation vial. The solutions were then transferred to tubes and centrifuged for 30 min at 1000×g to remove any particulate material before chromatography.
(§3) The [^3 H]-testosterone substrate and its metabolites were separated by chromatography using a C-18 reversed phase column (Beckman Ultrasphere 5 μm spherical 80A pore, part no. 235329, 4.6 mm i.d.×[…]) with an isocratic mobile phase (46 water: 46 methanol: 8 tetrahydrofuran by volume). The column temperature was maintained at 35° and the flow rate was 1.5 ml/min. A 400 μl aliquot was injected onto the column and radioactivity was determined using a Beckman 171 in-line flow radioisotope detector in conjunction with Rainin Dynamax™ software and a Macintosh computer. The flow rate of the Atomflow™ scintillation fluid was 4.5 ml / min.

Type I 5α-reductase = target: T2, Type I 5α-reductase (Homo sapiens, UniProt P18405); assay: Human Type I steroid 5α-reductase assay (human scalp enzyme, [3H]-testosterone conversion); format: biochemical; conditions: compared to control reaction mixtures, read-out: percent inhibition of Type I 5AR; for inhibition at 0.01 µM: compound concentration .01 μM; for inhibition at 0.03 µM: compound concentration .03 μM; for inhibition at 0.1 µM: compound concentration .1 μM
T2 construct: Scalp punch biopsies from graft recipient sites were obtained from human hair transplant procedures; from tissue; host or cells: human scalp punch biopsies (pooled, 60-75 punches from one surgical procedure), 100,000×g pellet of homogenate
T2 sequence (P18405 1-259): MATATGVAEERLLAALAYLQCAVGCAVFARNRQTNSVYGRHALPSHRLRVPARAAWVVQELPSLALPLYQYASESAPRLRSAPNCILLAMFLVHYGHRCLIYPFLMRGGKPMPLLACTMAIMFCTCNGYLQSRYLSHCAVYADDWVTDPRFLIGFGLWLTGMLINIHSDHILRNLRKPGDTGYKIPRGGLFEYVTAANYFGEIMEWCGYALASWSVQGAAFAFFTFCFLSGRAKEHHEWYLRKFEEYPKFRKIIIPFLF
Method: Scalp punch biopsies from graft recipient sites were obtained from human hair transplant procedures immediately after surgery and were frozen on dry ice and stored at -80° C. Approximately 60-75 punches from one surgical procedure were used to generate an enzyme preparation. The subcutaneous tissue was cut away and discarded. The skin was frozen with liquid nitrogen and pulverized to powder. The powder was homogenized in 30 ml of ice-cold buffer (20 mM Tris-HCl, pH 7.5) using a Brinkmann Polytron (Westbury, N.Y.) with a PTA 10-S robe and a setting of 7. The homogenization procedure consisted of four 15 second pulses. Connective tissue was cleared from the probe with forceps between pulses. The homogenate was then filtered through cheese cloth and the filtrate centrifuged at 100,000×g for one hour in a Beckman L8-60M ultracentrifuge. The pellet was resuspended by homogenization with a Dounce homogenizer using the same buffer solution. An aliquot was taken for protein determination by the Lowry method, Lowry, et al., Protein Measurement with the Folin Phenol Reagent, J. Biol. Chem., 193,265-75 (1951). Aliquots of the enzyme preparation were stored at -80° until use.
as §1, §2, §3

Row | Compound | inhibition at 1 µM (Type II 5α-reductase) [%] | inhibition at 3 µM (Type II 5α-reductase) [%] | inhibition at 10 µM (Type II 5α-reductase) [%] | inhibition at 0.3 µM (Type II 5α-reductase) [%] | inhibition at 0.01 µM (Type I 5α-reductase) [%] | inhibition at 0.03 µM (Type I 5α-reductase) [%] | inhibition at 0.1 µM (Type I 5α-reductase) [%]
1 | C[C@]12CCC(=O)C(N)=C1CCc1cc(Cl)ccc12 [Example 1, (R)-1-amino-7-chloro-4,4a,9,10-tetrahydro-4a-methyl-2(3H)-phenanthreneone] | 55 | 49 | 63 | 47 | 0 | 35 | 42
2 | C[C@]12CCC(=O)C(N)=C1C=Cc1cc(Cl)ccc12 [Example 2, (R)-1-amino-7-chloro-4,4a-dihydro-4a-methyl-2(3H)-phenanthreneone] | 16 | 33 | 36 | 7 | 0 | 3 | 26
